Assay results taken from patent US20080312184A1 (priority 2005, published 2008).

Legend:
[1] = test system: alternaria leaf spot pathogen of apples; assay: Control Test on Alternaria Leaf Spot of Apples; type: in vivo, apples (cultivar: ourin); conditions: Table 5, single active ingredient, examined after 20 days
Source text: After a liquid chemical was dried, 10 trees attacked by alternaria leaf spot pathogen of apples which were previously arranged to be diseased were placed on the windward side and apples of test pots placed on the leeward side by wind of an air conditioner were wind-inoculated.

brown patch pathogen = assay: Control Test on Brown Patch of Turf Grass; type: in vivo, grass (cultivar: Pentocross); conditions: Table 6, single active ingredient, soaked into soil, kept for 20 days
Source text: Then, the area ratio of brown patch pathogen-attacked portion to the whole surface of the pot was examined according to the same index as in Test Example 1.

## Clc1ccc(CSC(Cn2cncn2)=Nc2ccc(Cl)cc2Cl)cc1 [Imibenconazole, imibenconazole]
[1]; treated concentration 10 ppm
  Control Value: 42

## CC1=C(C(=O)Nc2ccccc2)S(=O)(=O)CCO1 [Oxycarboxin, oxycarboxin]
Brown patch pathogen; treated concentration 20 ppm
  Control Value: 42

## O=C1C(Cl)=C(Cl)C(=O)N1c1ccc(F)cc1 [Fluoroimide, fluoroimide]
[1]; treated concentration 30 ppm
  Control Value: 45

## CCCCCCCCCCCCNC(=N)N [Dodine, dodine]
[1]; treated concentration 50 ppm
  Control Value: 44

## C[Si](C)(C)CC(O)(Cn1cncn1)c1ccc(F)cc1 (centres unmarked) [Simeconazole, simeconazole]
Brown patch pathogen; treated concentration 10 ppm
  Control Value: 48

## CC(C)CC(C)c1sccc1NC(=O)c1cn(C)nc1C(F)(F)F (racemic) [P (penthiopyrad), (RS)—N-[2-(1,3-dimethylbutyl)thiophen-3-yl]-1-methyl-3-tri fluoromethyl-1H-pyrazole-4-carboxamide]
[1]; treated concentration 10 ppm
  Control Value: 50
Brown patch pathogen; treated concentration 10 ppm
  Control Value: 53

## CC1(C)COC(C)(CCCc2ccc(Cl)cc2)N1C(=O)n1ccnc1.CC1(C)COC(C)(CCCc2ccc(Cl)cc2)N1C(=O)n1ccnc1.O=C(O)/C=C/C(=O)O (centres unmarked) [Oxpoconazole fumarate, oxpoconazole fumarate]
[1]; treated concentration 10 ppm
  Control Value: 46
